In brackets after ≈: the same amount, converted by molar mass. Read-outs that look alike come from different tables or passages of the source.
Experiments:
[1] = Determination of solubility (HPLC); assay type: physicochemical; details: for solubility: thermodynamic from solid
Protocol: About 1.325 mg of Icaritin and the synthesized derivative were weighed and dissolved in 1.5 mL methanol respectively, then diluted with methanol into solutions of 10, 20, 50, 100, 150, 200, 500 μg/mL, and filtered over an organic-system filter head of 0.45 μm into sample bottles, obtaining the samples for test. Four parts of Icaritin and the synthesized derivative were weighed respectively, 1.00 mg for each part, and placed into 1.5 mL EP tubes, and 1 mL of water, normal saline, PBS, and 0.1% Tween 80 were respectively added thereto. The obtained solutions were ultrasonicated for 1 h, placed in a water bath at 37° C. overnight, and centrifuged at 10000 r/min for 3 min to collect supernatants. The supernatants were taken into sample bottles and detected by HPLC. The experiments were conducted in parallel for three times. The detection of HPLC is conducted under conditions of a chromatographic column of waters Symmetry C18, a mobile phase of a solution of methanol and water with a ratio of 80:20, a flow rate of 1.0 mL/min, a column temperature of 30° C., a detection wavelength of 210 nm, a run time of 30 min, and a sample load of 20 μL.

HepG2 hepatoma cells = assay: Anti-tumor activity in vitro, MTT method, HepG2; assay type: cell-based, human; details: for IC50: MTT; for IC50 compared with Icaritin, HepG2 72 h: HepG2, 72 h after administration; for IC50 compared with Icaritin, 48 and 72 h: HepG2 and SMMC7721, 48 and 72 h
Protocol: (§1) The effects of Icaritin and its derivatives on the activities of HepG2 and SMMC7721 hepatoma cells were investigated by a MTT method. […] After reaction for 48, 7 2 h, each well was added with 20 μL 5 mg/mL, of MTT solution, and incubated in a cell incubator for 3-4 h. Then the liquid in the well plates was sucked to discard. Each well was added with 150 μL of dimethyl sulfoxide (DMSO), and shaken on an enzyme-labeled instrument for 30 s at ambient temperature so that the Formazan crystals were dissolved sufficiently. The absorbance value A of each well at 570 nm was detected by the enzyme-labeled instrument, and the experiment was repeated for 3 times.

SMMC7721 hepatoma cells = assay: Anti-tumor activity in vitro, MTT method, SMMC7721; assay type: cell-based, human; details: for IC50: MTT; for IC50 compared with Icaritin, SMMC7721 72 h: SMMC7721, 72 h after administration
Protocol: as §1

HepG2 subcutaneous tumor = assay: Anti-tumor activity in vivo, HepG2 nude mouse model; design: species or system Balb/c nude mice; details: HepG2 nude mice, intraperitoneally every day for 21 days; for tumor inhibition rate: equal mole of Icaritin (Icaritin 10 mg/kg); for anti-tumor activity in vivo (tumor volume, FIG. 1): high and low dose
Source text: According to the investigation results of solubility and cell activity, compounds 51 and 57 with high solubility and strong cell activity were selected to evaluate the anti-hepatoma activity in vivo on HepG2 nude mouse models.
Human hepatoma cells HepG2 were cultivated to logarithmic growth phase in DMEM culture medium containing 10% fetal calf serum and 1% antibiotics (penicillin and streptomycin), and digested by adding 0.25% pancreatin. After the resulting cells were cultivated in DMEM and the pancreatin was removed, they were centrifuged at 1000 rpm for 3 min. Then the cells were collected and washed with free medium until no bubbles produced as observed by naked eyes, and then ° entrifuged. After discarding the supernatant, the cells were resuspended with free medium adjust the cell density to 1×10^6/100 μL.
70 Balb/c nude mice raised in an SPF-grade animal house were taken. 100 μL, HepG2 cells were inoculated subcutaneously at the right lateral rib of each nude mouse. The growing status of nude mice was observed and the subcutaneous tumor volume was measured every day. One week after inoculation, obvious nodules were formed subcutaneously in nude mice. Administration was initiated when the tumor grew to 100 mm^3.
Tumor volume increased to 80-120 mm^3 at two weeks after inoculation, marked as Day 0. The nude mice were randomly divided into 6 groups with 6 mice in each group: a normal saline group (control), an Icaritin group (Icarian), a yyhs-i-b high dose group, a yyhs-1-b low dose group, a yyhs-2-a high dose group, and a yyhs-2-a low dose group. Administration was performed intraperitoneally every day for 21 days totally.
The administration doses were: Icarian at 10 mg/kg, compound 51 high dose at 25.30 mg/kg, low dose at 12.65 mg/kg, compound 57 high dose at 22.91 mg/kg, and low dose at 11.45 mg/kg.
From day 0, the body weights and tumor volumes of nude mice were measured once every three days, in which the maximum diameter (a) of tumor was measured first, and then the longest radial line length (b) perpendicular to the maximum diameter line was measured, in mm, thereby calculating the tumor volume according to the following formula: […]
At the end of the treatment cycle, blood was taken from orbital vein of the nude mice for later blood routine test. Then the nude mice were sacrificed using cervical vertebra dislocation. After taking photos, the tumors were stripped immediately and photographed for record. From day 0, the body weights of each group of nude mice were weighed and recorded every 3 days, and at the same time, the tumor volumes of these nude mice were recorded. The average body weight and tumor volume were calculated for each group, and the curve of body weight versus tumor volume of the nude mice was plotted according to the statistical data.
The hearts, livers, spleens, lungs, and kidneys were subsequently picked from the nude mice, soaked with 4% paraformaldehyde and then preserved at a low temperature of 4° C. for later investigation of the mechanism of the anti-tumor in vivo. The tumor volume growth curve was plotted with the time as the horizontal coordinate, and with the tumor volume as the vertical coordinate. The tumor volume growth curves and the appearance of tumors are seen in FIG. 1. The body weight changing curves of mice are plotted in FIG. 2, with the time as the horizontal coordinate, and the body weight of mice as the vertical coordinate.

[2] = Homo sapiens, HepG2, 48 h, read-out: IC50 HepG2 48 h
[3] = Homo sapiens, HepG2, 72 h, read-out: IC50 HepG2 72 h
[4] = Homo sapiens, SMMC-7721, SMMC7721, 48 h, read-out: IC50 SMMC7721 48 h
[5] = Homo sapiens, SMMC-7721, SMMC7721, 72 h, read-out: IC50 SMMC7721 72 h

Row | SMILES | IC50 (HepG2 hepatoma cells; [2]) | IC50 (HepG2 hepatoma cells; [3]) | IC50 (SMMC7721 hepatoma cells; [4]) | IC50 (SMMC7721 hepatoma cells; [5]) | tumor inhibition rate (HepG2 subcutaneous tumor) | solubility compared with that of the bulk drug (Icaritin) [1] | IC50 compared with Icaritin, HepG2 72 h (HepG2 hepatoma cells) | IC50 compared with Icaritin, 48 and 72 h (HepG2 hepatoma cells) | IC50 compared with Icaritin, SMMC7721 72 h (SMMC7721 hepatoma cells) | anti-tumor activity in vivo (tumor volume, FIG. 1) (HepG2 subcutaneous tumor) | other results
1 | COc1ccc(-c2oc3c(CC=C(C)C)c(O)cc(O)c3c(=O)c2O)cc1 [Icaritin, reference compound] | 20.6 ± 2.82 µM | 16.1 ± 1.27 µM | 23.2 ± 1.02 µM | 15 ± 0.66 µM | 53% |  |  |  |  |  | solubility ([1]; aqueous buffer, PBS, 37° C. overnight, n = 3, read-out: Solubility, PBS): 8.1 ± 0.897 µg/mL (≈ 22 µM); solubility ([1]; aqueous with cosolvent or surfactant or cyclodextrin, 0.1% Tween 80, 37° C. overnight, n = 3, read-out: Solubility, 0.1% Tween 80): 8.11 ± 0.672 µg/mL (≈ 22 µM); solubility ([1]; saline or isotonic, normal saline, 37° C. overnight, n = 3, read-out: Solubility, Normal Saline): 8.1 ± 1.01 µg/mL (≈ 22 µM); solubility ([1]; water, 37° C. overnight, n = 3, read-out: Solubility, Water): 8.57 ± 0.832 µg/mL (≈ 23.3 µM)
2 | COc1ccc(-c2oc3c(CC=C(C)C)c(O)cc(O)c3c(=O)c2OC(=O)CCC(=O)OCCOCCOCCOCCOCc2cn(CCO[C@H]3O[C@@H](CO)[C@H](O)[C@@H](O)[C@@H]3O)nn2)cc1 [Compound 51] | 14.9 ± 0.22 µM | 7.09 ± 0.38 µM | 9.3 ± 0.35 µM | 5.99 ± 0.49 µM | 95% | improved effectively | less than that of Icaritin | less than those of Icaritin | less than that of Icaritin | excellent anti-tumor activities in vivo and are dose-dependent | solubility ([1]; 37 °C, aqueous buffer): 48.5 ± 0.948 µg/mL (≈ 52 µM); solubility ([1]; 37 °C, aqueous with cosolvent or surfactant or cyclodextrin): 51.5 ± 1.23 µg/mL (≈ 55.3 µM); solubility ([1]; 37 °C, saline or isotonic): 47.9 ± 0.993 µg/mL (≈ 51.4 µM); solubility ([1]; 37 °C, water): 50.3 ± 1.31 µg/mL (≈ 54 µM)
3 | COc1ccc(-c2oc3c(CC=C(C)C)c(O)cc(O)c3c(=O)c2OC(=O)CCC(=O)OCCOCCOCCOCc2cn(C3OC(CO)C(O)C(O)C3O)nn2)cc1 (stereo not shown) [Compound 57] |  |  |  |  | 90% | improved effectively | less than that of Icaritin | less than those of Icaritin | less than that of Icaritin | excellent anti-tumor activities in vivo and are dose-dependent | Solubility, 0.1% Tween 80 [1]: 6.508 ± 0.742 µg/mL (≈ 7.71 µM); Solubility, Normal Saline [1]: 16.383 ± 0.941 µg/mL (≈ 19.4 µM); Solubility, PBS [1]: 16.391 ± 1.029 µg/mL (≈ 19.4 µM); Solubility, Water [1]: 17.710 ± 1.012 µg/mL (≈ 21 µM); IC50 (HepG2 hepatoma cells; HepG2, 48 h, read-out: IC50 HepG2 48 h): 10.3 ± 1.19 µM; IC50 (HepG2 hepatoma cells; HepG2, 72 h, read-out: IC50 HepG2 72 h): 7.91 ± 0.98 µM; IC50 (SMMC7721 hepatoma cells; SMMC7721, 48 h, read-out: IC50 SMMC7721 48 h): 10.3 ± 1.19 µM; IC50 (SMMC7721 hepatoma cells; SMMC7721, 72 h, read-out: IC50 SMMC7721 72 h): 5.82 ± 1.04 µM

Source: patent publication US20240067672A1, “FLAVONE DERIVATIVE FOR TREATING TUMORS AND USE THEREOF” (SICHUAN FUSHENGYUAN TECHNOLOGY CO., LTD, priority 2019, published 2024)
